Entries after “also recorded” stand apart in the source; their conditions may differ. Structures can show the parent of a compound that is named as a salt. Each block holds one molecule with its values, some of them ahead of it.
Tests used:
[1] = Stability test: LC-MS/MS analysis of aqueous solutions at 0 and 24 h; type: physicochemical; settings: water solution, 5 mM
Experimental: (§1) Stability test. Fresh water solutions of Pilo, PiloHCl, and [Pilo-OEG]Cl (5 mM) were prepared and their pH at 0, 0.75, 4, 8, and 24 h was measured with a pH meter ([…]). The samples at 0 and 24 h were further analyzed with LC-MS/MS using a Surveyor Plus HPLC System and triple stage quadrupole (TSQ) Quantum Ultra Mass Spectrometer (Thermo Fisher Scientific, USA) equipped with an auto-sampler and electrospray ionization (ESI) source. Separation was carried out on an Hypersil Gold column (150 mm×2.1 mm, […], Thermo) maintained at 25° C. The mobile phase consisted of 0.1% (v/v) formic acid water phase (A) and methanol phase (B). The gradient elution program was as follows: 95% of A at 0-5 min, and back to 95% of A at 23.1 min, re-conditioning of the column for 8 min. The flow rate was 0.2 mL/min A capillary temperature of 350° C., spray voltage of 4500 V, sheath gas of 30 arb, and auxiliary gas of 10 arb were maintained as the optimal instrument conditions. Unit resolution was used for Q1 (FWHM 0.7). Nitrogen was used as both sheath gas and auxiliary gas.

[2] = Stability test: pH of aqueous solutions over 24 h; type: physicochemical; settings: for pH of freshly prepared solution: 0 h
Experimental: as §1

[3] = test system: HCE-2 human corneal epithelial cells; test: Cytotoxicity assessment, WST-1 assay; type: cell-based; settings: HCE-2 cells, 24 h, 1 mM to 50 mM
Experimental: (§2) Cytotoxicity assessment. HCE-2 human corneal epithelial cells were seeded in a 96-well plate at a density of 1×10^4 cell/well. After attachment, the cells were incubated with various concentrations of Pilo, PiloHCl and [Pilo-OEG]Cl for 24 h and cell viability was determined by using WST-1 assay. The medium for HCE-2 (ATCC CRL-11135, epithelial Adenovirus 12-SV40 hybrid transformed) was Keratinocyte-serum free medium supplemented with 0.05 mg/mL of bovine pituitary extract (BPE), 5 ng/mL of epidermal growth factor (EGF), 500 ng/mL of hydrocortisone and 0.005 mg/mL of insulin. The cytotoxicity of Pilo and [Pilo-OEG]Cl to NIH3T3 fibroblast cells was also tested.

[4] = literature value; cited from earlier work
[5] = Ex vivo corneal permeation, Franz diffusion cell; type: in vitro ADME; settings: rabbit cornea; for amount permeated through the cornea within 4 h: 200 μL of 27 mM in donor chamber
Experimental: Ex vivo corneal permeation studies. Corneas were extracted from fresh rabbit eyes and mounted immediately in a Franz diffusion cell system with the epithelial surface facing the donor chamber. In each test, Pilo, PiloHCl, or [Pilo-OEG]Cl (200 μL, 27 mM) was loaded to the donor chamber. The receiver chamber was filled with 5 mL of PBS. At pre-determined time points up to 4 h, an aliquot of 1 mL from the receiver chamber was collected via syringe and analyzed with UV-Vis spectrophotometer (U-3010, Hitachi). Fresh PBS (1 mL) was added to the receiver chamber following each sampling. All the experiments were conducted in triplicate. The permeability coefficient, P, was then determined based on the following equation: [formula] where dQ/dt is the steady-state slope of a cumulative flux curve (in this study, the data in 1 h is selected for dQ/dt calculation), C is drug concentration in the donor chamber, and A is the effective cross-sectional area (0.629 cm^2) available for diffusion.^22

[6] = test system: intraocular pressure (IOP); test: In vivo IOP-lowering efficacy assessment; set-up: species or system normotensive adult Brown Norway female rats; settings: for IOP reduction after second dose: second topical dose applied 4 hours after the first; for average IOP reduction after first dose: topical 2×5 μL, 82 mM pilocarpine equivalent, 45 min post-administration, n=4; for time of highest IOP reduction post-administration: topical instillation
Experimental: In vivo efficacy assessment. Normotensive adult Brown Norway female rats (Charles River Laboratories), 8 months old, were used in this work. The rats were given free access to food and water, 12 hours light and dark cycle in a temperature-controlled room (18-24° C.). The procedures conducted were approval by Virginia Commonwealth University IACUC. Rats were randomly grouped to two groups of four (n=4). The right eye of each rat was instilled with PiloHCl or [Pilo-OEG]Cl PBS solution (2×5 μL, 82 mM pilocarpine equivalent), one dose at 8:00 am and the second dose at 12:00 pm. The IOPs of both eyes were measured at 8:00 am (before dosing), 8:45 am, 12:00 pm (before the second dosing), 12:45 pm, and 16:00 pm using Icare TONOLAB tonometer TV02.

[7] = Cytotoxicity assessment, WST-1 assay; type: cell-based, human; settings: human, HCE-2 human corneal epithelial cells; HCE-2 cells, 24 h incubation, WST-1
Experimental: as §2

pH of freshly prepared solution ([2]; water solution, 5 mM): 9.2
pH of solution at 8 h ([2]; water solution, 5 mM, 8 h): 8.7
pH of solution at 24 h ([2]; water solution, 5 mM, 24 h): 8.2
pKa ([2]; water solution, calculated/estimated from pH at 0 h, 5 mM in water, read-out: dissociation constant (pKa)): 7.28
amount permeated through the cornea within 4 h ([5]; 4 h): 27.8±14.7%
permeability coefficient ([5]; dQ/dt from data in 1 h): 6.6 ×10⁻⁶ cm/s
SMILES: CC[C@@H]1C(=O)OC[C@@H]1Cc1cncn1C [Pilo, Pilocarpine]
degradation products formed in solution (LC-MS) [1]: isopilocarpine formed (eluted at 2.02 min, m/z=209.06) and further hydrolyzed into acids
cytotoxicity / cytocompatibility [3]: cytocompatible
pKa reported in the Merck Index [4]: 7.15

pH of freshly prepared solution ([2]; water solution, 5 mM): 7.3
pH stability of aqueous solution within 24 h ([2]; water solution, 5 mM, 24 h): remain relatively stable
permeability coefficient, fold higher than Pilo [5]: 1 fold
permeability coefficient, fold higher than PiloHCl [5]: 8 fold
amount permeated through the cornea within 4 h ([5]; 4 h): 51.6±8.1%
amount permeated, fold higher than PiloHCl ([5]; 4 h): 5 fold
Papp at 1 h, 27 mM ([5]; rabbit, dQ/dt from data in 1 h, read-out: permeability coefficient): 13 ×10⁻⁶ cm/s
SMILES: CC[C@@H]1C(=O)OC[C@@H]1Cc1c[n+](CCOCCOCCO)cn1C.[Cl-] [[Pilo-OEG]Cl]
IOP reduction, fold versus PiloHCl ([6]; first dose, statistical significance not established): 2 fold
IOP reduction after second dose [6]: 2.625 mmHg
average IOP reduction after first dose [6]: 2.75 mmHg
time of highest IOP reduction post-administration [6]: 45 min
degradation products formed in solution (LC-MS) [1]: neither isopilocarpine or pilocarpine and isopilocarpine acids formed
cytotoxicity / cytocompatibility [3]: did not show apparent toxicity; also recorded: cytocompatible

degradation products formed in solution (LC-MS) ([1]; hydrochloride): Isopilocarpine also formed
dissociation constant (pKa) ([2]; calculated/estimated from pH at 0 h, 5 mM in water, hydrochloride): 8.34
pH of freshly prepared solution ([2]; water solution, 5 mM, hydrochloride): 5.3
pH stability of aqueous solution within 24 h ([2]; water solution, 5 mM, 24 h): remain relatively stable
amount permeated through the cornea within 4 h ([5]; 4 h, hydrochloride): 8.1±1.8%
permeability coefficient ([5]; dQ/dt from data in 1 h, hydrochloride): 1.5 ×10⁻⁶ cm/s
SMILES: CC[C@@H]1C(=O)OC[C@@H]1Cc1cncn1C [PiloHCl, pilocarpine hydrochloride]
IOP reduction after second dose [6]: ~1 mmHg
average IOP reduction after first dose [6]: 1.25 mmHg
time of highest IOP reduction post-administration [6]: 45 min
IC50 at 24 h [7]: 25 mM
cytotoxicity / cytocompatibility ([3]; hydrochloride): strong dose-dependent cytotoxicity

Source: patent US11845741B2, “Pilocarpine ionic liquids for treatment of glaucoma” (VIRGINIA COMMONWEALTH UNIVERSITY INTELLECTUAL PROPERTY …, priority 2020, dated 2023)
